Source: ChEMBL document CHEMBL3885881, “DrugMatrix”

Organism: Rattus norvegicus
Experiment: DrugMatrix - Regimen: Daily Repeat
Assay type: toxicity, organism-based, Sprague-Dawley
Parameters: regimen Daily Repeat, gender Male, age 6-8 weeks
Settings: in vivo, po, 34 mg/kg, route oral GAVAGE, dose level Low, vehicle .5 % CMC; for ABSOLUTE BASOPHIL / ABSOLUTE EOSINOPHIL / ABSOLUTE LYMPHOCYTE / ABSOLUTE MONOCYTE / ABSOLUTE SEGMENTED NEUTROPHIL / BASOPHIL / EOSINOPHIL / ERYTHROCYTE COUNT / HEMATOCRIT / HEMOGLOBIN / LEUKOCYTE COUNT / LYMPHOCYTE / MEAN CORPUSCULAR HEMOGLOBIN / MEAN CORPUSCULAR HEMOGLOBIN CONCENTRATION / MEAN CORPUSCULAR VOLUME / MONOCYTE / NEUTROPHIL / NUCLEATED RED BLOOD CELLS / PLATELET COUNT: tissue Blood; for ALANINE AMINOTRANSFERASE / ALBUMIN / ALKALINE PHOSPHATASE / ASPARTATE AMINOTRANSFERASE / BLOOD UREA NITROGEN / CARBON DIOXIDE / CHLORIDE / CHOLESTEROL / CREATINE PHOSPHOKINASE / CREATININE / GLUCOSE / LACTATE DEHYDROGENASE / LIPASE / PHOSPHORUS / POTASSIUM / SODIUM / TOTAL BILIRUBIN / TOTAL PROTEIN / URIC ACID: tissue Plasma

## NS(=O)(=O)c1cc(C(=O)O)c(NCc2ccco2)cc1Cl [FUROSEMIDE]
72 h, time 3 day
  ABSOLUTE BASOPHIL: 0 CELLS/uL
  ABSOLUTE EOSINOPHIL: 0 CELLS/uL
  ABSOLUTE LYMPHOCYTE: 13709 CELLS/uL
  ABSOLUTE MONOCYTE: 86 CELLS/uL
  ABSOLUTE SEGMENTED NEUTROPHIL: 1038.33 CELLS/uL
  BASOPHIL: 0%
  EOSINOPHIL: 0%
  ERYTHROCYTE COUNT: 5.45 x10E6/uL
  HEMATOCRIT: 33.7%
  HEMOGLOBIN: 13.47 G/DL
  LEUKOCYTE COUNT: 14.83 x10E3/uL
  LYMPHOCYTE: 92.33%
  MEAN CORPUSCULAR HEMOGLOBIN: 24.7 pg
  MEAN CORPUSCULAR HEMOGLOBIN CONCENTRATION: 39.97 G/DL
  MEAN CORPUSCULAR VOLUME: 61.87 fL
  MONOCYTE: 0.67%
  NEUTROPHIL: 7%
  NUCLEATED RED BLOOD CELLS: 0 /100WBC
  PLATELET COUNT: 1150 x10E3/uL
  ALANINE AMINOTRANSFERASE: 50.33 u/L
  ALBUMIN: 4.17 G/DL
  ALKALINE PHOSPHATASE: 404.33 u/L
  ASPARTATE AMINOTRANSFERASE: 82.67 u/L
  BLOOD UREA NITROGEN: 16 mg/dL
  CARBON DIOXIDE: 29.33 mmol/L
  CHLORIDE: 99 MEQ/L
  CHOLESTEROL: 46.33 mg/dL
  CREATINE PHOSPHOKINASE: 391.33 u/L
  CREATININE: 0.19 mg/dL
  GLUCOSE: 138.67 mg/dL
  LACTATE DEHYDROGENASE: 200.67 u/L
  LIPASE: 9 u/L
  PHOSPHORUS: 10.7 mg/dL
  POTASSIUM: 6.62 MEQ/L
  SODIUM: 143.97 MEQ/L
  TOTAL BILIRUBIN: 0.33 mg/dL
  TOTAL PROTEIN: 5.77 G/DL
  URIC ACID: 1.33 mg/dL
120 h, time 5 day
  ABSOLUTE BASOPHIL: 0 CELLS/uL
  ABSOLUTE EOSINOPHIL: 0 CELLS/uL
  ABSOLUTE LYMPHOCYTE: 14118 CELLS/uL
  ABSOLUTE MONOCYTE: 111.33 CELLS/uL
  ABSOLUTE SEGMENTED NEUTROPHIL: 770.67 CELLS/uL
  BASOPHIL: 0%
  EOSINOPHIL: 0%
  ERYTHROCYTE COUNT: 5.69 x10E6/uL
  HEMATOCRIT: 36.23%
  HEMOGLOBIN: 14 G/DL
  LEUKOCYTE COUNT: 15 x10E3/uL
  LYMPHOCYTE: 94%
  MEAN CORPUSCULAR HEMOGLOBIN: 24.6 pg
  MEAN CORPUSCULAR HEMOGLOBIN CONCENTRATION: 38.73 G/DL
  MEAN CORPUSCULAR VOLUME: 63.7 fL
  MONOCYTE: 0.67%
  NEUTROPHIL: 5.33%
  NUCLEATED RED BLOOD CELLS: 0.33 /100WBC
  PLATELET COUNT: 1289.67 x10E3/uL
  ALANINE AMINOTRANSFERASE: 54.33 u/L
  ALBUMIN: 4.37 G/DL
  ALKALINE PHOSPHATASE: 439.33 u/L
  ASPARTATE AMINOTRANSFERASE: 88 u/L
  BLOOD UREA NITROGEN: 23 mg/dL
  CARBON DIOXIDE: 27 mmol/L
  CHLORIDE: 100.33 MEQ/L
  CHOLESTEROL: 42.67 mg/dL
  CREATINE PHOSPHOKINASE: 236.67 u/L
  CREATININE: 0.22 mg/dL
  GLUCOSE: 162.33 mg/dL
  LACTATE DEHYDROGENASE: 196.67 u/L
  LIPASE: 8.67 u/L
  PHOSPHORUS: 11.1 mg/dL
  POTASSIUM: 6.53 MEQ/L
  SODIUM: 144.3 MEQ/L
  TOTAL BILIRUBIN: 0.2 mg/dL
  TOTAL PROTEIN: 6.13 G/DL
  URIC ACID: 1.67 mg/dL
